In the supplement of paper PMC10307832:

Assays:
Experiment in all cases: relative viability (nuclei count vs DMSO), 5 days (fraction); higher = more cells survive
[1] = compound: COc1cc2ncn(-c3cc(OCc4ccccc4C(F)(F)F)c(C(N)=O)s3)c2cc1OC + CC(=O)c1c(C)c2cnc(Nc3ccc(N4CCNCC4)cn3)nc2n(C2CCCC2)c1=O [Palbociclib] (partner 0.5 µM)
Method in brief: (§1)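 Five library-drug doses in √10 steps were combined with a fixed anchor-drug dose, or a single drug was given alone, by pin tool to lung cancer cell lines in 1536-well plates the day after seeding. Nuclei were stained and counted after 5 days. Relative viability is the nuclei count in treated wells over that in vehicle wells, taken as the median of duplicate plates.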

[2] = compound: COc1cc2ncn(-c3cc(OCc4ccccc4C(F)(F)F)c(C(N)=O)s3)c2cc1OC + CC(C)C[C@H](NC(=O)[C@H](Cc1ccccc1)NC(=O)c1cnccn1)B(O)O [Bortezomib] (partner 0.002 µM)
Method in brief: as §1

[3] = compound: COc1cc2ncn(-c3cc(OCc4ccccc4C(F)(F)F)c(C(N)=O)s3)c2cc1OC + Cc1nc(NC(=O)N2CCC[C@H]2C(N)=O)sc1-c1ccnc(C(C)(C)C(F)(F)F)c1 [Alpelisib] (partner 2 µM)
Method in brief: as §1

[4] = compound: COc1cc2ncn(-c3cc(OCc4ccccc4C(F)(F)F)c(C(N)=O)s3)c2cc1OC + Cc1nc(Nc2ncc(C(=O)Nc3c(C)cccc3Cl)s2)cc(N2CCN(CCO)CC2)n1 [Dasatinib] (partner 0.075 µM)
Method in brief: as §1

NCI-H1993
relative viability ([1]; first compound 0.05 µM): 0.512 | relative viability ([1]; first compound 0.1581 µM): 0.67 | relative viability ([1]; first compound 0.5 µM): 0.561 | relative viability ([1]; first compound 1.581 µM): 0.513 | relative viability ([1]; first compound 5 µM): 0.431 | relative viability ([2]; first compound 0.05 µM): 1.09 | relative viability ([2]; first compound 0.1581 µM): 1.13 | relative viability ([2]; first compound 0.5 µM): 0.874 | relative viability ([2]; first compound 1.581 µM): 0.618 | relative viability ([2]; first compound 5 µM): 0.516 | relative viability ([3]; first compound 0.05 µM): 0.662 | relative viability ([3]; first compound 0.1581 µM): 0.674 | relative viability ([3]; first compound 0.5 µM): 0.605 | relative viability ([3]; first compound 1.581 µM): 0.519 | relative viability ([3]; first compound 5 µM): 0.517 | relative viability ([4]; first compound 0.05 µM): 0.649 | relative viability ([4]; first compound 0.1581 µM): 0.555 | relative viability ([4]; first compound 0.5 µM): 0.528 | relative viability ([4]; first compound 1.581 µM): 0.503 | relative viability ([4]; first compound 5 µM): 0.424

NCI-H1915
relative viability ([1]; first compound 0.05 µM): 0.456 | relative viability ([1]; first compound 0.1581 µM): 0.493 | relative viability ([1]; first compound 0.5 µM): 0.347 | relative viability ([1]; first compound 1.581 µM): 0.114 | relative viability ([1]; first compound 5 µM): 0.0905 | relative viability ([2]; first compound 0.05 µM): 1.04 | relative viability ([2]; first compound 0.1581 µM): 0.925 | relative viability ([2]; first compound 0.5 µM): 0.853 | relative viability ([2]; first compound 1.581 µM): 0.107 | relative viability ([2]; first compound 5 µM): 0.0772 | relative viability ([3]; first compound 0.05 µM): 1.05 | relative viability ([3]; first compound 0.1581 µM): 0.987 | relative viability ([3]; first compound 0.5 µM): 0.775 | relative viability ([3]; first compound 1.581 µM): 0.161 | relative viability ([3]; first compound 5 µM): 0.104 | relative viability ([4]; first compound 0.05 µM): 0.365 | relative viability ([4]; first compound 0.1581 µM): 0.281 | relative viability ([4]; first compound 0.5 µM): 0.316 | relative viability ([4]; first compound 1.581 µM): 0.0798 | relative viability ([4]; first compound 5 µM): 0.0572

SK-LU-1
relative viability ([1]; first compound 0.05 µM): 0.404 | relative viability ([1]; first compound 0.1581 µM): 0.355 | relative viability ([1]; first compound 0.5 µM): 0.349 | relative viability ([1]; first compound 1.581 µM): 0.212 | relative viability ([1]; first compound 5 µM): 0.214 | relative viability ([2]; first compound 0.05 µM): 1.35 | relative viability ([2]; first compound 0.1581 µM): 1.14 | relative viability ([2]; first compound 0.5 µM): 0.745 | relative viability ([2]; first compound 1.581 µM): 0.292 | relative viability ([2]; first compound 5 µM): 0.256 | relative viability ([3]; first compound 0.05 µM): 1.02 | relative viability ([3]; first compound 0.1581 µM): 0.778 | relative viability ([3]; first compound 0.5 µM): 0.276 | relative viability ([3]; first compound 1.581 µM): 0.291 | relative viability ([3]; first compound 5 µM): 0.306 | relative viability ([4]; first compound 0.05 µM): 0.183 | relative viability ([4]; first compound 0.1581 µM): 0.198 | relative viability ([4]; first compound 0.5 µM): 0.138 | relative viability ([4]; first compound 1.581 µM): 0.146 | relative viability ([4]; first compound 5 µM): 0.158

LOU-NH91
relative viability ([1]; first compound 0.05 µM): 0.529 | relative viability ([1]; first compound 0.1581 µM): 0.479 | relative viability ([1]; first compound 0.5 µM): 0.517 | relative viability ([1]; first compound 1.581 µM): 0.446 | relative viability ([1]; first compound 5 µM): 0.333 | relative viability ([2]; first compound 0.05 µM): 0.434 | relative viability ([2]; first compound 0.1581 µM): 0.368 | relative viability ([2]; first compound 0.5 µM): 0.405 | relative viability ([2]; first compound 1.581 µM): 0.348 | relative viability ([2]; first compound 5 µM): 0.346 | relative viability ([3]; first compound 0.05 µM): 0.705 | relative viability ([3]; first compound 0.1581 µM): 0.843 | relative viability ([3]; first compound 0.5 µM): 0.626 | relative viability ([3]; first compound 1.581 µM): 0.447 | relative viability ([3]; first compound 5 µM): 0.488 | relative viability ([4]; first compound 0.05 µM): 0.6 | relative viability ([4]; first compound 0.1581 µM): 0.599 | relative viability ([4]; first compound 0.5 µM): 0.459 | relative viability ([4]; first compound 1.581 µM): 0.31 | relative viability ([4]; first compound 5 µM): 0.387

NCI-H2347
relative viability ([1]; first compound 0.05 µM): 0.373 | relative viability ([1]; first compound 0.1581 µM): 0.413 | relative viability ([1]; first compound 0.5 µM): 0.397 | relative viability ([1]; first compound 1.581 µM): 0.377 | relative viability ([1]; first compound 5 µM): 0.375 | relative viability ([2]; first compound 0.05 µM): 1.1 | relative viability ([2]; first compound 0.1581 µM): 0.861 | relative viability ([2]; first compound 0.5 µM): 0.543 | relative viability ([2]; first compound 1.581 µM): 0.372 | relative viability ([2]; first compound 5 µM): 0.479 | relative viability ([3]; first compound 0.05 µM): 0.896 | relative viability ([3]; first compound 0.1581 µM): 0.92 | relative viability ([3]; first compound 0.5 µM): 0.813 | relative viability ([3]; first compound 1.581 µM): 0.581 | relative viability ([3]; first compound 5 µM): 0.735 | relative viability ([4]; first compound 0.05 µM): 0.32 | relative viability ([4]; first compound 0.1581 µM): 0.258 | relative viability ([4]; first compound 0.5 µM): 0.278 | relative viability ([4]; first compound 1.581 µM): 0.228 | relative viability ([4]; first compound 5 µM): 0.258

NCI-H2126
relative viability ([1]; first compound 0.05 µM): 0.373 | relative viability ([1]; first compound 0.1581 µM): 0.31 | relative viability ([1]; first compound 0.5 µM): 0.348 | relative viability ([1]; first compound 1.581 µM): 0.273 | relative viability ([1]; first compound 5 µM): 0.265 | relative viability ([2]; first compound 0.05 µM): 1.16 | relative viability ([2]; first compound 0.1581 µM): 1.16 | relative viability ([2]; first compound 0.5 µM): 1.03 | relative viability ([2]; first compound 1.581 µM): 0.398 | relative viability ([2]; first compound 5 µM): 0.314 | relative viability ([3]; first compound 0.05 µM): 0.731 | relative viability ([3]; first compound 0.1581 µM): 0.803 | relative viability ([3]; first compound 0.5 µM): 0.668 | relative viability ([3]; first compound 1.581 µM): 0.293 | relative viability ([3]; first compound 5 µM): 0.234 | relative viability ([4]; first compound 0.05 µM): 0.584 | relative viability ([4]; first compound 0.1581 µM): 0.638 | relative viability ([4]; first compound 0.5 µM): 0.463 | relative viability ([4]; first compound 1.581 µM): 0.248 | relative viability ([4]; first compound 5 µM): 0.221

HCC-827
relative viability ([1]; first compound 0.05 µM): 0.442 | relative viability ([1]; first compound 0.1581 µM): 0.391 | relative viability ([1]; first compound 0.5 µM): 0.486 | relative viability ([1]; first compound 1.581 µM): 0.424 | relative viability ([1]; first compound 5 µM): 0.217 | relative viability ([2]; first compound 0.05 µM): 1.06 | relative viability ([2]; first compound 0.1581 µM): 0.98 | relative viability ([2]; first compound 0.5 µM): 1.02 | relative viability ([2]; first compound 1.581 µM): 0.776 | relative viability ([2]; first compound 5 µM): 0.508 | relative viability ([3]; first compound 0.05 µM): 0.887 | relative viability ([3]; first compound 0.1581 µM): 1.03 | relative viability ([3]; first compound 0.5 µM): 0.667 | relative viability ([3]; first compound 1.581 µM): 0.286 | relative viability ([3]; first compound 5 µM): 0.226 | relative viability ([4]; first compound 0.05 µM): 0.321 | relative viability ([4]; first compound 0.1581 µM): 0.359 | relative viability ([4]; first compound 0.5 µM): 0.222 | relative viability ([4]; first compound 1.581 µM): 0.293 | relative viability ([4]; first compound 5 µM): 0.292

NCI-H3122
relative viability ([1]; first compound 0.05 µM): 0.189 | relative viability ([1]; first compound 0.1581 µM): 0.202 | relative viability ([1]; first compound 0.5 µM): 0.148 | relative viability ([1]; first compound 1.581 µM): 0.14 | relative viability ([1]; first compound 5 µM): 0.13 | relative viability ([2]; first compound 0.05 µM): 1.05 | relative viability ([2]; first compound 0.1581 µM): 0.951 | relative viability ([2]; first compound 0.5 µM): 0.709 | relative viability ([2]; first compound 1.581 µM): 0.183 | relative viability ([2]; first compound 5 µM): 0.227 | relative viability ([3]; first compound 0.05 µM): 0.842 | relative viability ([3]; first compound 0.1581 µM): 0.514 | relative viability ([3]; first compound 0.5 µM): 0.203 | relative viability ([3]; first compound 1.581 µM): 0.149 | relative viability ([3]; first compound 5 µM): 0.197 | relative viability ([4]; first compound 0.05 µM): 0.895 | relative viability ([4]; first compound 0.1581 µM): 0.562 | relative viability ([4]; first compound 0.5 µM): 0.373 | relative viability ([4]; first compound 1.581 µM): 0.125 | relative viability ([4]; first compound 5 µM): 0.0999

HOP-62
relative viability ([1]; first compound 0.05 µM): 0.411 | relative viability ([1]; first compound 0.1581 µM): 0.417 | relative viability ([1]; first compound 0.5 µM): 0.403 | relative viability ([1]; first compound 1.581 µM): 0.148 | relative viability ([1]; first compound 5 µM): 0.107 | relative viability ([2]; first compound 0.05 µM): 0.977 | relative viability ([2]; first compound 0.1581 µM): 1.2 | relative viability ([2]; first compound 0.5 µM): 0.507 | relative viability ([2]; first compound 1.581 µM): 0.178 | relative viability ([2]; first compound 5 µM): 0.124 | relative viability ([3]; first compound 0.05 µM): 1.02 | relative viability ([3]; first compound 0.1581 µM): 0.837 | relative viability ([3]; first compound 0.5 µM): 0.752 | relative viability ([3]; first compound 1.581 µM): 0.199 | relative viability ([3]; first compound 5 µM): 0.116 | relative viability ([4]; first compound 0.05 µM): 0.653 | relative viability ([4]; first compound 0.1581 µM): 0.694 | relative viability ([4]; first compound 0.5 µM): 0.597 | relative viability ([4]; first compound 1.581 µM): 0.15 | relative viability ([4]; first compound 5 µM): 0.114
